Results on two compounds are retold here after US8440819B2, “Therapeutic substituted beta-lactams” (Allergan, Inc., priority 2008, dated 2013).

Data set [1] concerns laser-induced hypertensive monkeys. Briefly: Intraocular pressure in laser-induced hypertensive monkeys. Format: in vivo, monkey. The settings on record: 0.01%, one single day dose, at 24 h. As for the experimental part:
(§1) U.S. Pat. No. 7,091,231 describes the methods used to carry out the tests reported below.
(§2) Isopropyl (5-(3-((2S)-1-(4-(1-hydroxyhexyl)phenyl)-4-oxoazetidin-2-yl)propyl)thiophene-2-carboxylate (12) was tested in normotensive dogs at 0.01%, dosing once daily for 5 days. The maximum intraocular pressure (IOP) decrease from baseline was 3.7 mmHg (25%) at 6 h; the maximum ocular surface hyperemia (OSH) score was 1.7 at 50 h. This compound was also tested in laser-induced hypertensive monkeys, using one single day dose. At 0.01%, the maximum IOP decrease from baseline was 12.6 mmHg (35%) at 24 h.

A further data set has as its system normotensive dogs. Briefly: Intraocular pressure and ocular surface hyperemia in normotensive dogs. The format is in vivo, dog. The conditions noted are these: 0.01%, once daily for 5 days. How it is done:
as §1, §2

In data set [2] the target is T1, EP4 (Homo sapiens, UniProt P35408). In words: EP4 flipr. The format is cell-based. From the text: (§3) U.S. patent application Ser. No. 11/553,143, filed on Oct. 26, 2006, incorporated by reference herein, describes the methods used to obtain the in vitro data in Table 1 below.
T1 sequence (P35408 whole entry): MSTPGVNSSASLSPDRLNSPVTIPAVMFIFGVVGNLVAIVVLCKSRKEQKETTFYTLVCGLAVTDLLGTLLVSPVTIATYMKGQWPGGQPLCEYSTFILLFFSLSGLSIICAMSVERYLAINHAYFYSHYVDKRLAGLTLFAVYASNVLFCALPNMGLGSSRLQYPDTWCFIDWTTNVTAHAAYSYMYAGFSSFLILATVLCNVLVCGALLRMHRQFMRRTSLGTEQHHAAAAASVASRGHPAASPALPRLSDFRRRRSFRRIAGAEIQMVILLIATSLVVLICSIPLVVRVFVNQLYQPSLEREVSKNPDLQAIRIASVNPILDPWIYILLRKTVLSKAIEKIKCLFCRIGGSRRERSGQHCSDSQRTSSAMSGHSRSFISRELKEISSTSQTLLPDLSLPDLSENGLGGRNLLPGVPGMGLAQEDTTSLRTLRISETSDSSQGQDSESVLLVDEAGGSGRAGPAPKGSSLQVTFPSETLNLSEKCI
Data set [3] has as its target T2, EP2 (Homo sapiens, UniProt P43116). Briefly: EP2 binding (Ki).
From the text: as §3

Data set [4] addresses T2, EP2. Briefly: EP2 flipr. Format: cell-based.
From the text: as §3

In data set [5] the target is T1, EP4. In words: EP4 binding (Ki). The conditions noted are these: read-out: EP4 data Kl.
From the text: as §3

The target of another data set is T3, hEP3A (Homo sapiens, UniProt P43115).
T3 sequence (P43115 1-390): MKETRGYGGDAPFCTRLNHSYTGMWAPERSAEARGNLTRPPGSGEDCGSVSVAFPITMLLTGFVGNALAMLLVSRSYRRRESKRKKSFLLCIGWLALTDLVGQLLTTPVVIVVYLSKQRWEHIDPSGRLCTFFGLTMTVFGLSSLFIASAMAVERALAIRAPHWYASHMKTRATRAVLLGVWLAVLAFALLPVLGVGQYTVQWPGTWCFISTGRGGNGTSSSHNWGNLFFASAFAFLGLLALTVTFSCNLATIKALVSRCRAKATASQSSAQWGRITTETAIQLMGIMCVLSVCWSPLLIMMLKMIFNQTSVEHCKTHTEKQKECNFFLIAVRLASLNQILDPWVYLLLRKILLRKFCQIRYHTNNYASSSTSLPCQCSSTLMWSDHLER
In words: Other receptors functional EC50, hEP3A. The format is cell-based.
From the text: as §3

For data set [6], the target named is T2, EP2. In words: EP2 cAMP. The format is cell-based.
From the text: as §3

In another data set the target is T4, hDP (Homo sapiens, UniProt Q13258).
T4 sequence (Q13258 1-359): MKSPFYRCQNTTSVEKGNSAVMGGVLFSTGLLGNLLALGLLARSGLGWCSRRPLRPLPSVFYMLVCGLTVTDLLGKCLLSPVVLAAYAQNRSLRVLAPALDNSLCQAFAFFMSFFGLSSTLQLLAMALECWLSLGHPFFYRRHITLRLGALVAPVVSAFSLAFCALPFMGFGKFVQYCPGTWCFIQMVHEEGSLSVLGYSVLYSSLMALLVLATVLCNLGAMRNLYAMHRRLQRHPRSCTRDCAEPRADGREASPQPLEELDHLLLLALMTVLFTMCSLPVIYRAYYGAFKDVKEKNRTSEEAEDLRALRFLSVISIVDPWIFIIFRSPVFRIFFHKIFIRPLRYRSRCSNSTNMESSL
Briefly: Other receptors functional EC50, hDP. Format: cell-based.
From the text: as §3

pEC50, pKi: −log10 of the molar value.

T2 sequence (P43116 whole entry): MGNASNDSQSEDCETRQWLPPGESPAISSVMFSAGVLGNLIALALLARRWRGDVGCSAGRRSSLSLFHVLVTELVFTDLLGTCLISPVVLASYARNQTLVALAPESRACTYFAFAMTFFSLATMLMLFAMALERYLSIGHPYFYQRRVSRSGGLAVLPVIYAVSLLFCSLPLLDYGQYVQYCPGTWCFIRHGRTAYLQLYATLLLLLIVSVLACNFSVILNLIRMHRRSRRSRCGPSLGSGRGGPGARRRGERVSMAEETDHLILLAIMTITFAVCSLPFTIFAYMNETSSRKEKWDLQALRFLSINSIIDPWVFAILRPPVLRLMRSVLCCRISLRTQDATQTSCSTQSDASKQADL

With `CCCCCC(O)c1ccc(N2C(=O)C[C@@H]2CCCc2ccc(C(=O)OC(C)C)s2)cc1` (stereo partly drawn) [compound 12], in data set [1], the “maximum IOP decrease from baseline” value stood at 12.6 mmHg and the “maximum IOP decrease from baseline, percent” value was determined as 35%. Also, in the data set on normotensive dogs (at 6 h), the “maximum intraocular pressure (IOP) decrease from baseline” value is 3.7 mmHg and the “maximum intraocular pressure (IOP) decrease from baseline, percent” value was determined as 25%. Moreover, in the data set on normotensive dogs (at 50 h), the “maximum ocular surface hyperemia (OSH) score” value was found to be 1.7.

For the compound `CCCCCC(O)c1ccc(N2C(=O)C[C@@H]2CCCc2ccc(C(=O)O)s2)cc1` (mixture of isomers) [compound 11], the pEC50 on EP4 [2] is < 5.00; on EP2 [4], 8.96; on EP2 [6], 9.40. For the same compound, the pKi at EP2 [3] is 8.00; at EP4 [5], 5.84. Also, the results for the EC50 at hEP3A and on hDP were 42 nM and 4740 nM, respectively.

One may read the pEC50 as the EC50 on a negative log10 scale, so that one unit is a factor of ten. The term EC50 denotes the concentration needed to bring the measured effect to its halfway point. Higher therefore signals a need for much substance.
